Assay results taken from ChEMBL document CHEMBL4507271, “Data for DCP probe BAY-707” (2021).
Each block holds one compound with its values, some of them ahead of it.

Legend:
[1] = molecular target: GABA-A receptor; anion channel; assay: GPCRScan assay: inhibition of GABAA/BZP; assay type: protein-complex assay, Rattus norvegicus; parameters: radioligand conc. used [nm] 0.6 – 4.0, parental cells brain tissue
[2] = molecular target: D(4) dopamine receptor (Homo sapiens) (UniProt P21917); settings: Compound concentration 10.0 uM
[3] = molecular target: Sigma intracellular receptor 2 (Homo sapiens) (UniProt Q5BJF2); settings: Compound concentration 10.0 uM
Sigma intracellular receptor 2 (Homo sapiens), sequence (Q5BJF2 whole entry): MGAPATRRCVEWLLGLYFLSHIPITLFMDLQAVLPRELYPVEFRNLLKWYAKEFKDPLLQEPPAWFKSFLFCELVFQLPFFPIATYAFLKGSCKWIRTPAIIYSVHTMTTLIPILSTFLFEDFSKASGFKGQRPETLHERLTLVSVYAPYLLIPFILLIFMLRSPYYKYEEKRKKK

[4] = molecular target: T1, GABA-A receptor; anion channel (Rattus norvegicus) (UniProt O09028+P15431+P18506+P18508+P19969+P20236+P23574+P23576+P28471+P28473+P30191+P62813+P63079+P63138+Q91ZM7+Q9ES14); settings: Compound concentration 10.0 uM
[5] = molecular target: Histamine H1 receptor (Homo sapiens) (UniProt P35367); settings: Compound concentration 10.0 uM
[6] = molecular target: 5-hydroxytryptamine receptor 2B (Homo sapiens) (UniProt P41595); settings: Compound concentration 10.0 uM
[7] = molecular target: 5-hydroxytryptamine receptor 7 (Homo sapiens) (UniProt P34969); settings: Compound concentration 10.0 uM
[8] = molecular target: 5-hydroxytryptamine receptor 3A (Homo sapiens) (UniProt P46098); settings: Compound concentration 10.0 uM
[9] = molecular target: 5-hydroxytryptamine receptor 1A (Homo sapiens) (UniProt P08908); settings: Compound concentration 10.0 uM
[10] = molecular target: 5-hydroxytryptamine receptor 1D (Homo sapiens) (UniProt P28221); settings: Compound concentration 10.0 uM
[11] = molecular target: 5-hydroxytryptamine receptor 1E (Homo sapiens) (UniProt P28566); settings: Compound concentration 10.0 uM
[12] = molecular target: Histamine H2 receptor (Homo sapiens) (UniProt P25021); settings: Compound concentration 10.0 uM
[13] = molecular target: Alpha-1A adrenergic receptor (Homo sapiens) (UniProt P35348); settings: Compound concentration 10.0 uM
[14] = molecular target: Beta-2 adrenergic receptor (Homo sapiens) (UniProt P07550); settings: Compound concentration 10.0 uM
[15] = molecular target: 5-hydroxytryptamine receptor 1B (Homo sapiens) (UniProt P28222); settings: Compound concentration 10.0 uM
5-hydroxytryptamine receptor 1B (Homo sapiens), sequence (P28222 whole entry): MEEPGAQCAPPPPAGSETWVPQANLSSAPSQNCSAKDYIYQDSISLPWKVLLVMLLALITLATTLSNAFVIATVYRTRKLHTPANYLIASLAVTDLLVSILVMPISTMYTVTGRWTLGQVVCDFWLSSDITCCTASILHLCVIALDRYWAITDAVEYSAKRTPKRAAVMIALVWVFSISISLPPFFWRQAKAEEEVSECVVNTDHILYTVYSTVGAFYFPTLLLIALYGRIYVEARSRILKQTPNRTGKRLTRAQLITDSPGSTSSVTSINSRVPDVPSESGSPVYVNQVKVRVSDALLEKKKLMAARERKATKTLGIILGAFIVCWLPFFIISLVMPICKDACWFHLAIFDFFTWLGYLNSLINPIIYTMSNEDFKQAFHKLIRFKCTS

[16] = molecular target: Muscarinic acetylcholine receptor M4 (Homo sapiens) (UniProt P08173); settings: Compound concentration 10.0 uM
[17] = molecular target: D(3) dopamine receptor (Homo sapiens) (UniProt P35462); settings: Compound concentration 10.0 uM
[18] = molecular target: T1, GABA-A receptor; anion channel (Rattus norvegicus); settings: Compound concentration 10.0 uM; remark: listed apart in the source
[19] = molecular target: Alpha-2A adrenergic receptor (Homo sapiens) (UniProt P08913); settings: Compound concentration 10.0 uM
Alpha-2A adrenergic receptor (Homo sapiens), sequence (P08913 whole entry): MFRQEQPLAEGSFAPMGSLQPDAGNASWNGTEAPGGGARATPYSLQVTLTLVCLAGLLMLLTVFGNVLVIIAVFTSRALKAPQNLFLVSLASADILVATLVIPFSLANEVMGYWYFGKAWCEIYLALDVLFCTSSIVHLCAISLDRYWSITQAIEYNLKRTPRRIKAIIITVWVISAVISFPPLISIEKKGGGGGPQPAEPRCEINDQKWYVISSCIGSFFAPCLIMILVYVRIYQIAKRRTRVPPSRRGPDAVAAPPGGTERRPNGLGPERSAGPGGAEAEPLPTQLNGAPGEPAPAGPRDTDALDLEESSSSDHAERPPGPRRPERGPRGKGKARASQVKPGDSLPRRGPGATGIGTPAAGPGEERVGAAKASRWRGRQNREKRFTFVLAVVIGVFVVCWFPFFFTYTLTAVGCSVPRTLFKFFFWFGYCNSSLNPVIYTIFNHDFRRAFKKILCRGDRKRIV

[20] = molecular target: Sodium-dependent noradrenaline transporter (Homo sapiens) (UniProt P23975); settings: Compound concentration 10.0 uM
[21] = molecular target: Alpha-2C adrenergic receptor (Homo sapiens) (UniProt P18825); settings: Compound concentration 10.0 uM
[22] = molecular target: D(1A) dopamine receptor (Homo sapiens) (UniProt P21728); settings: Compound concentration 10.0 uM
D(1A) dopamine receptor (Homo sapiens), sequence (P21728 whole entry): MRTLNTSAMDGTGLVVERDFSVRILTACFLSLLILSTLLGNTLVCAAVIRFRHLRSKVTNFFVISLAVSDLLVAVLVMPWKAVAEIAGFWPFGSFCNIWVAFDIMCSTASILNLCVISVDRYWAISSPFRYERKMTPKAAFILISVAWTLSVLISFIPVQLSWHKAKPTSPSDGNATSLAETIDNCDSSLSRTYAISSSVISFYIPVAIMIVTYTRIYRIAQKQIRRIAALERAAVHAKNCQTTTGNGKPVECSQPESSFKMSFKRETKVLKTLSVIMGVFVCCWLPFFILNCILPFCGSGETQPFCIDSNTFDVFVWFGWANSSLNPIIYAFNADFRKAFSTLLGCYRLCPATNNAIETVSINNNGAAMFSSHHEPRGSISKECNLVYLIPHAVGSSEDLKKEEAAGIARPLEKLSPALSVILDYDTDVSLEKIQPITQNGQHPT

[23] = molecular target: Muscarinic acetylcholine receptor M1 (Homo sapiens) (UniProt P11229); settings: Compound concentration 10.0 uM
[24] = molecular target: Kappa-type opioid receptor (Homo sapiens) (UniProt P41145); settings: Compound concentration 10.0 uM
Kappa-type opioid receptor (Homo sapiens), sequence (P41145 whole entry): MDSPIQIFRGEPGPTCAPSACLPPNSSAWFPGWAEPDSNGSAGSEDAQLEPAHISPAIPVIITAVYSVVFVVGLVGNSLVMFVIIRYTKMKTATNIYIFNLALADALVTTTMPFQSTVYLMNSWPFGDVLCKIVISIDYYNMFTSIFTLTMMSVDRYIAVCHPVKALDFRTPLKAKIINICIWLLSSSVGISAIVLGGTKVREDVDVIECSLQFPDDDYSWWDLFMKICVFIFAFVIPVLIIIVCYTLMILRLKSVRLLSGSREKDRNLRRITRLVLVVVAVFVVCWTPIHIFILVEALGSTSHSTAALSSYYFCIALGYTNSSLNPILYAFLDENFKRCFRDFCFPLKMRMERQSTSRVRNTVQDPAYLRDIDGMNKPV

[25] = molecular target: Alpha-2B adrenergic receptor (Homo sapiens) (UniProt P18089); settings: Compound concentration 10.0 uM
Alpha-2B adrenergic receptor (Homo sapiens), sequence (P18089 whole entry): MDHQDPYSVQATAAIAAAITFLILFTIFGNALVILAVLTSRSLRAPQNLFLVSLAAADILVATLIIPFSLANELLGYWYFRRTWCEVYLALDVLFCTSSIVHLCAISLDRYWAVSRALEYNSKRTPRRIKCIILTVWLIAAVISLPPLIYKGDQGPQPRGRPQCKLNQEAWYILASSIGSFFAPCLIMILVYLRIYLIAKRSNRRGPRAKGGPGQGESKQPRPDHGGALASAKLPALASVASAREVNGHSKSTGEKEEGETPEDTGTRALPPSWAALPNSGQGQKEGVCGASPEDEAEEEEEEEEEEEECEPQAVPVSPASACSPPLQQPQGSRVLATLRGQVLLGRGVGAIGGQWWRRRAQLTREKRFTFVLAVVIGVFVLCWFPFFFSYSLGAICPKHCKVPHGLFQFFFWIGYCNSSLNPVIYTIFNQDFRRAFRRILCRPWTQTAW

[26] = molecular target: Delta-type opioid receptor (Homo sapiens) (UniProt P41143); settings: Compound concentration 10.0 uM
Delta-type opioid receptor (Homo sapiens), sequence (P41143 whole entry): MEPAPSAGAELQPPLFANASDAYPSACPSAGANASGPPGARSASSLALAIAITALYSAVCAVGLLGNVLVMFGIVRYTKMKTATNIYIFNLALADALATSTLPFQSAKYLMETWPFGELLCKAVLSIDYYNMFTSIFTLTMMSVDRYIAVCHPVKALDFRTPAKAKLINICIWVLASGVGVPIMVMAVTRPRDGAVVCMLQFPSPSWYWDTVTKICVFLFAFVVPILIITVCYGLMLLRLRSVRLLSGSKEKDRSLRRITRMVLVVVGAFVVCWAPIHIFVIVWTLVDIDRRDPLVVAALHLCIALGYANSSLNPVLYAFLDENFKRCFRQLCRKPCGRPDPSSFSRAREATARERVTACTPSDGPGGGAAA

[27] = molecular target: Oxidized purine nucleoside triphosphate hydrolase (Homo sapiens, UniProt P36639); assay: PPiLight Biochemical Assay
[28] = molecular target: Histamine H3 receptor (Homo sapiens) (UniProt Q9Y5N1); settings: Compound concentration 10.0 uM
Histamine H3 receptor (Homo sapiens), sequence (Q9Y5N1 whole entry): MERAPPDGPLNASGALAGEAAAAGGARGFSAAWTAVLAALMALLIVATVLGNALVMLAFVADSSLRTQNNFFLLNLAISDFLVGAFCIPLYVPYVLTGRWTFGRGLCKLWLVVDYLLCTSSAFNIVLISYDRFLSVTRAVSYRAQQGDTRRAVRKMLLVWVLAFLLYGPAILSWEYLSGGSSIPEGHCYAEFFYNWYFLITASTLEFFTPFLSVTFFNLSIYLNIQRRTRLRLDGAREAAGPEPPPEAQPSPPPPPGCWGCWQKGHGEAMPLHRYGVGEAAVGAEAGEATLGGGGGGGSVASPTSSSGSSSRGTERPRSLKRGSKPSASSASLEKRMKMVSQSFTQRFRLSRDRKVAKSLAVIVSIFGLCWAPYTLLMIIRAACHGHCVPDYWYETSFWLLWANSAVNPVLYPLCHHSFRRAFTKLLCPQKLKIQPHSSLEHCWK

[29] = molecular target: Beta-3 adrenergic receptor (Homo sapiens) (UniProt P13945); settings: Compound concentration 10.0 uM
[30] = molecular target: Sigma non-opioid intracellular receptor 1 (Homo sapiens) (UniProt Q99720); settings: Compound concentration 10.0 uM
Sigma non-opioid intracellular receptor 1 (Homo sapiens), sequence (Q99720 whole entry): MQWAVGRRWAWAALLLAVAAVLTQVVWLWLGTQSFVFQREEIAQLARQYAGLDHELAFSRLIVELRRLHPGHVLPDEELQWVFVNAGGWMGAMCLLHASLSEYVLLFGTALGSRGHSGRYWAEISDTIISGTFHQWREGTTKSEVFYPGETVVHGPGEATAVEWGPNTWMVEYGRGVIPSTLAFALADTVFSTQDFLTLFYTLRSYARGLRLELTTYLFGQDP

Rattus norvegicus = organism: Rattus norvegicus; settings: Compound concentration 10.0 uM
[31] = molecular target: Muscarinic acetylcholine receptor M2 (Homo sapiens) (UniProt P08172); settings: Compound concentration 10.0 uM
Muscarinic acetylcholine receptor M2 (Homo sapiens), sequence (P08172 whole entry): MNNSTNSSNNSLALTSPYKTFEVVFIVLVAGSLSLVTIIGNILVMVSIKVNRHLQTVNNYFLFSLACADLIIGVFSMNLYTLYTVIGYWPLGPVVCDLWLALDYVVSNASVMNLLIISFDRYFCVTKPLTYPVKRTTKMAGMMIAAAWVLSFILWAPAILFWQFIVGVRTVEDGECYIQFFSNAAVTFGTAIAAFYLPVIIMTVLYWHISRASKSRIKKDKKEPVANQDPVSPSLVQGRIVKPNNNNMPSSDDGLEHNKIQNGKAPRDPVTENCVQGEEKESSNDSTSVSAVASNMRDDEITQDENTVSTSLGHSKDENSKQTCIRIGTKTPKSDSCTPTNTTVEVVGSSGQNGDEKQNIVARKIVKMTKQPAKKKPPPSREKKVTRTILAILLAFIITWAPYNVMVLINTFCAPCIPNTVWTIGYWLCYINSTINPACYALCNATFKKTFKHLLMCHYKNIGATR

[32] = molecular target: Alpha-1B adrenergic receptor (Homo sapiens) (UniProt P35368); settings: Compound concentration 10.0 uM
D(4) dopamine receptor = D(4) dopamine receptor (Homo sapiens, UniProt P21917); assay: GPCRScan assay: inhibition of D4; parameters: radioligand conc. used [nm] 0.6 – 1.7, parental cells Stable HEK
[33] = molecular target: Alpha-1D adrenergic receptor (Homo sapiens) (UniProt P25100); settings: Compound concentration 10.0 uM
[34] = molecular target: 5-hydroxytryptamine receptor 6 (Homo sapiens) (UniProt P50406); settings: Compound concentration 10.0 uM
[35] = molecular target: D(2) dopamine receptor (Homo sapiens) (UniProt P14416); settings: Compound concentration 10.0 uM
[36] = molecular target: Muscarinic acetylcholine receptor M5 (Homo sapiens) (UniProt P08912); settings: Compound concentration 10.0 uM
Muscarinic acetylcholine receptor M5 (Homo sapiens), sequence (P08912 whole entry): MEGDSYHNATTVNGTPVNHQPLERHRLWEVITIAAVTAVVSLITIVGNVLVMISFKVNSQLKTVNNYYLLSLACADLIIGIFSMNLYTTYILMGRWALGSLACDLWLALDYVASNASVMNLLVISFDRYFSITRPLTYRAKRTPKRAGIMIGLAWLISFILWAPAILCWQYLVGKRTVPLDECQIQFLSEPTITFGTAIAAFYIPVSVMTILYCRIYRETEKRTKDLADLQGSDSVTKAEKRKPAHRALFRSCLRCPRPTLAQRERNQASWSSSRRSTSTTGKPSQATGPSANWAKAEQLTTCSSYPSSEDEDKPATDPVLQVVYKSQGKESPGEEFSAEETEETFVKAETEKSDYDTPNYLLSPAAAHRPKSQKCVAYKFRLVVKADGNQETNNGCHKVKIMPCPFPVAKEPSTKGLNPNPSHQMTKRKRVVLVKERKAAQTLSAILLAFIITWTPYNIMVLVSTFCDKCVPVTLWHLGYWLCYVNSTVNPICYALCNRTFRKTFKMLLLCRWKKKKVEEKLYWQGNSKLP

[37] = molecular target: Histamine H4 receptor (Homo sapiens) (UniProt Q9H3N8); settings: Compound concentration 10.0 uM
[38] = molecular target: Mu-type opioid receptor (Homo sapiens) (UniProt P35372); settings: Compound concentration 10.0 uM
[39] = molecular target: 5-hydroxytryptamine receptor 2C (Homo sapiens) (UniProt P28335); settings: Compound concentration 10.0 uM
[40] = molecular target: 5-hydroxytryptamine receptor 2A (Homo sapiens) (UniProt P28223); settings: Compound concentration 10.0 uM
5-hydroxytryptamine receptor 2A (Homo sapiens), sequence (P28223 whole entry): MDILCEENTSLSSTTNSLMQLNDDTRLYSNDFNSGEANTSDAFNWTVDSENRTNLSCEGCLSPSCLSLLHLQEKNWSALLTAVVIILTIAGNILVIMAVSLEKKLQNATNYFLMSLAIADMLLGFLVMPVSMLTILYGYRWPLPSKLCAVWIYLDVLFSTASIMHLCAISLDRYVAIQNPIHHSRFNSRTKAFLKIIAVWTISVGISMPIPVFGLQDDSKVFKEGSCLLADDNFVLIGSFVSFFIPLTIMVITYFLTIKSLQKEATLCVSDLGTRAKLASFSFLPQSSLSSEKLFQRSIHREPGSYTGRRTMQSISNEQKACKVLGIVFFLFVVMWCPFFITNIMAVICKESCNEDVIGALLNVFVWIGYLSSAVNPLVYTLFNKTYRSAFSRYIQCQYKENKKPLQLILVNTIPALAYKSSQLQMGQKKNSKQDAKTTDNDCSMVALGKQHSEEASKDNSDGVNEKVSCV

[41] = molecular target: Muscarinic acetylcholine receptor M3 (Homo sapiens) (UniProt P20309); settings: Compound concentration 10.0 uM
[42] = molecular target: 5-hydroxytryptamine receptor 1A (Homo sapiens, UniProt P08908); assay: GPCRScan assay: inhibition of 5-HT1A; parameters: radioligand conc. used [nm] 0.5 – 1.0, parental cells stable CHO
[43] = molecular target: Sodium-dependent dopamine transporter (Homo sapiens) (UniProt Q01959); settings: Compound concentration 10.0 uM
[44] = molecular target: 5-hydroxytryptamine receptor 5A (Homo sapiens) (UniProt P47898); settings: Compound concentration 10.0 uM
[45] = molecular target: D(1B) dopamine receptor (Homo sapiens) (UniProt P21918); settings: Compound concentration 10.0 uM

Ki [1]: 224 nM | pKi [1]: 6.72 | inhibition [2]: 77.6% | inhibition [3]: 30.4% | inhibition [4]: -1.39% | inhibition [5]: 26% | inhibition [6]: 2.79% | inhibition [7]: -1.21% | inhibition [8]: 18.6% | inhibition [9]: -1.88% | inhibition [10]: -0.31% | inhibition [11]: 9.36% | inhibition [12]: -3.91% | inhibition [13]: 3.94% | inhibition [14]: 27.3% | inhibition [15]: -8.46% | inhibition [16]: 5.75% | inhibition [17]: 12.1% | inhibition [18]: 84.2% | inhibition [19]: 16.9% | inhibition [20]: 5.35% | inhibition [21]: -1.28% | inhibition [22]: 14.2% | inhibition [23]: 11.9% | inhibition [24]: 14.6% | inhibition [25]: -2.44% | inhibition [26]: 2.73% | IC50 [27]: > 20000 nM (not active) | inhibition [28]: -6.16% | inhibition [29]: -9.19% | inhibition [30]: 24.5% | inhibition (Rattus norvegicus): 17.2% | inhibition [31]: 7.19% | inhibition [32]: 5.71% | Ki (D(4) dopamine receptor; read-out: Ki): 736 nM | Ki (D(4) dopamine receptor; read-out: pKi (converted)): 708 nM | inhibition [33]: -8.1% | inhibition [34]: 31.9% | inhibition [35]: -1.89% | inhibition [36]: -0.9% | inhibition [37]: 5.51% | inhibition [38]: 0.08% | inhibition [39]: 46.2% | inhibition [40]: -1.68% | inhibition [41]: 38%
SMILES: CCNC(=O)c1cc2c(N3CCOC[C@@H]3C)ccnc2n1C

Ki [1]: 1530 nM | Ki [42]: 10000 nM | inhibition [2]: -3.84% | inhibition [3]: 34.6% | inhibition [4]: 28.2% | inhibition [5]: 4.94% | inhibition [6]: 47.1% | inhibition [43]: 25.5% | inhibition [7]: -4.45% | inhibition [8]: -1.37% | inhibition [9]: 69.8% | inhibition [10]: -7.55% | inhibition [11]: 10.6% | inhibition [12]: 1.31% | inhibition [13]: 1.88% | inhibition [14]: -6.09% | inhibition [15]: -1.66% | inhibition [17]: -7.82% | inhibition [18]: 57.3% | inhibition [19]: 18.1% | inhibition [20]: 40.2% | inhibition [44]: -8.05% | inhibition [21]: 3.16% | inhibition [22]: 1.92% | inhibition [23]: 21.7% | inhibition [24]: 13.1% | inhibition [25]: 34.4% | inhibition [26]: -0.04% | inhibition [28]: 40.5% | inhibition [29]: 14.3% | inhibition [30]: 24.3% | inhibition (Rattus norvegicus): 30.1% | inhibition [31]: -1.26% | inhibition [32]: -2.4% | inhibition [45]: 34.3% | inhibition [33]: 8.58% | inhibition [34]: -8.52% | inhibition [35]: 12.3% | inhibition [36]: -4.95% | inhibition [37]: 0.0286% | inhibition [38]: 24.8% | inhibition [39]: -4.02% | inhibition [40]: -7.89%
SMILES: CCNC(=O)c1cc2c(N3CCOC[C@@H]3C)ccnc2[nH]1
